The record followed here is patent US20150141411A1, “SUBSTITUTED 3,4-DIHYDRO-2H-PYRIDO[1,2-A]PYRAZINE-1,6-DIONE DERIVATIVES USEFUL FOR THE TREATMENT OF (INTER ALIA) ALZHEIMER'S DISEASE” (Janssen Pharmaceuticals, Inc., priority 2012, published 2015).

The subject of the experiment is Aβ38. Briefly: In vivo efficacy: brain soluble Aβ38 in non-transgenic rodents (ELISA). As to conditions: Mus musculus, dose 30 mg/kg oral dosing, brain soluble fraction, animals sacrificed after 4 h, untreated animals (Ctrl) set at 100, read-out: Aβ38 (% vs Ctrl)_Mean. An excerpt: To determine whether acute administration of an Aβ38 increasing agents would increase Aβ38 levels in vivo, non-transgenic rodents, e.g. mice or rats were used. Animals treated with the Aβ38 increasing agents were examined and compared to those untreated or treated with vehicle and brain levels of soluble Aβ38 and total Aβ were quantitated by standard techniques, for example, using ELISA. Treatment periods varied from hours (h) to days and were adjusted based on the results of the Aβ38 increase once a time course of onset of effect could be established.
A typical protocol for measuring Aβ38 increase in vivo is shown but it is only one of many variations that could be used to optimize the levels of detectable Aβ. For example, Aβ38 increasing agents were formulated in 20% of Captisol® (a sulfobutyl ether of β-cyclodextrin) in water or 20% hydroxypropyl βcyclodextrin. The Aβ38 increasing agents were administered as a single oral dose or by any acceptable route of administration to overnight fasted animals. After 4 h, the animals were sacrificed and Aβ38 levels were analysed.
Blood was collected by decapitation and exsanguinations in EDTA-treated collection tubes. Blood was centrifuged at 1900 g for 10 minutes (min) at 4° C. and the plasma recovered and flash frozen for later analysis. The brain was removed from the cranium and hindbrain. The cerebellum was removed and the left and right hemisphere were separated. The left hemisphere was stored at −18° C. for quantitative analysis of test compound levels. The right hemisphere was rinsed with phosphate-buffered saline (PBS) buffer and immediately frozen on dry ice and stored at −80° C. until homogenization for biochemical assays.
Mouse brains from non-transgenic animals were resuspended in 8 volumes of 0.4% DEA (diethylamine)/50 mM NaCl containing protease inhibitors (Roche-11873580001 or 04693159001) per gram of tissue, e.g. for 0.158 g brain, add 1.264 ml of 0.4% DEA. All samples were homogenized in the FastPrep-24 system (MP Biomedicals) using lysing matrix D (MPBio #6913-100) at 6 m/s for 20 seconds. Homogenates were centrifuged at 221.300×g for 50 min. The resulting high speed supernatants were then transferred to fresh eppendorf tubes. Nine parts of supernatant were neutralized with 1 part 0.5 M Tris-HCl pH 6.8 and used to quantify Aβ total and Aβ38.
To quantify the amount of Aβtotal and Aβ38 in the soluble fraction of the brain homogenates, Enzyme-Linked-Immunosorbent-Assays were used. Briefly, the standards (a dilution of synthetic Aβ1-40 and Aβ1-38, ANASPEC) were prepared in 1.5 ml Eppendorf tube in Ultraculture, with final concentrations ranging from 10000 to 0.3 pg/ml. The samples and standards were co-incubated with HRPO-labelled N-terminal antibody for Aβ38 detection and with the biotinylated mid-domain antibody 4G8 for Aβtotal detection. 50 μl of conjugate/sample or conjugate/standards mixtures were then added to the antibody-coated plate (the capture antibodies selectively recognize the C-terminal end of Aβ38, antibody J&JPRD/Aβ38/5, for Aβ38 detection and the N-terminus of Aβ, antibody JRF/rAβ/2, for Aβtotal detection). The plate was allowed to incubate overnight at 4° C. in order to allow formation of the antibody-amyloid complex. Following this incubation and subsequent wash steps the ELISA for Aβ38 quantification was finished by addition of Quanta Blu fluorogenic peroxidase substrate according to the manufacturer's instructions (Pierce Corp., Rockford, Ill.). A reading was performed after 10 to 15 min (excitation 320 nm/emission 420 nm).
In this model a Aβ38 increase compared to untreated animals would be advantageous, in particular a Aβ38 increase with at least 10%, more in particular a Aβ38 increase with at least 20%.
The results are shown in Table 4 (dose 30 mg/kg oral dosing) (value for untreated animals as control (Ctrl) was set at 100): […]
For orientation: In an ELISA, binding on a coated surface is turned into a signal by an enzyme label.
Take `Cc1cn(-c2ccc3n(c2=O)C[C@@H](C)N(CCc2cc(C(F)(F)F)cc(C(F)(F)F)c2)C3=O)cn1` [compound 50]: the response vs control in vivo at 30 mg/kg turned out to be 110%.
Consider `Cc1cn(-c2ccc3n(c2=O)C[C@@H](C)N(Cc2ccc(Cl)c(C(F)(F)F)c2)C3=O)cn1` [compound 62], for which the response vs control in vivo at 30 mg/kg worked out at 160%.
In the case of `Cc1cn(-c2ccc3n(c2=O)C[C@@H](C)N(Cc2cc(N4CCCC4)ccc2Cl)C3=O)cn1` [compound 82], the response vs control in vivo at 30 mg/kg was 120%.
`Cc1cn(-c2ccc3n(c2=O)C[C@@H](C)N(Cc2cc(Cl)cc(C(F)(F)F)c2)C3=O)cn1` [compound 63]: the response vs control in vivo at 30 mg/kg is 133%.
As for `Cc1cn(-c2ccc3n(c2=O)C[C@@H](C)N(Cc2ccc(C(F)(F)F)c(C(F)(F)F)c2)C3=O)cn1` [compound 46], the response vs control in vivo at 30 mg/kg came to 62%.
As for `Cc1cn(-c2ccc3n(c2=O)CCN(C(C)c2cccc(Cl)c2Cl)C3=O)cn1` (single isomer, unassigned) [10a], the figure is 85%; as for `Cc1cn(-c2ccc3n(c2=O)CCN(Cc2ccc(C)c(N4CCCCC4)c2)C3=O)cn1` [compound 99], 92%; as for `Cc1cn(-c2ccc3n(c2=O)CCN(Cc2ccc(Cl)c(C(F)(F)F)c2)C3=O)cn1` [compound 65], 132%.
Take `Cc1cn(-c2ccc3n(c2=O)C[C@@H](C)N(Cc2cccc(C(C)(C)C)c2)C3=O)cn1` [compound 23]: the response vs control in vivo at 30 mg/kg is 132%.
Next, `Cc1cn(-c2ccc3n(c2=O)CC(C)N(Cc2cc(OCC4CC4)cc(C(F)(F)F)c2)C3=O)cn1.Cl` (stereo not drawn) [compound 6]: 129%; `Cc1cn(-c2ccc3n(c2=O)C[C@@H](C)N(Cc2ccc(Cl)c(Cl)c2)C3=O)cn1` [compound 2]: 129%; `Cc1cc(CN2C(=O)c3ccc(-n4cnc(C)c4)c(=O)n3C[C@H]2C)cc(C(F)(F)F)c1` [compound 59]: 126%.
As for `Cc1cn(-c2ccc3n(c2=O)CC(C)N(Cc2cc(C(F)(F)F)cc(C(F)(F)F)c2)C3=O)cn1` (stereo not drawn) [compound 3], the response vs control in vivo at 30 mg/kg was found to be 137%.
Turning to `Cc1cn(-c2ccc3n(c2=O)CCN(Cc2cccc(-c4ccccc4)c2)C3=O)cn1` [compound 5], the response vs control in vivo at 30 mg/kg is 110%.
Take `Cc1cn(-c2ccc3n(c2=O)CCN(Cc2ccccc2C)C3=O)cn1` [compound 22]: the response vs control in vivo at 30 mg/kg stood at 105%.
Regarding `CCC1Cn2c(ccc(-n3cnc(C)c3)c2=O)C(=O)N1Cc1cc(C(F)(F)F)cc(C(F)(F)F)c1.Cl` (stereo not drawn) [compound 1], the response vs control in vivo at 30 mg/kg was 103%.
As for `Cc1cn(-c2ccc3n(c2=O)C[C@@H](C)N(Cc2cc(N4CCC(C)CC4)ccc2Cl)C3=O)cn1` [compound 80], the response vs control in vivo at 30 mg/kg was found to be 118%.
Regarding `CCc1cn(-c2ccc3n(c2=O)CC(C)N(Cc2cc(C(F)(F)F)cc(C(F)(F)F)c2)C3=O)cn1.Cl` (stereo not drawn) [compound 7], the response vs control in vivo at 30 mg/kg came out at 80%.
